# Assay results taken from US11701368B2 (EYE CO PTY LTD, priority 2018, dated 2023).
# Like-named read-outs stand apart in the source and are kept apart here.
# Assays:
# glucocorticoid receptor = target: T1, glucocorticoid receptor (Homo sapiens, UniProt P04150); assay: Glucocorticoid receptor activity (GR potency) of corticosterones; settings: relative potency, hydrocortisone (cortisol) = 1
# T1 sequence (P04150 1-777): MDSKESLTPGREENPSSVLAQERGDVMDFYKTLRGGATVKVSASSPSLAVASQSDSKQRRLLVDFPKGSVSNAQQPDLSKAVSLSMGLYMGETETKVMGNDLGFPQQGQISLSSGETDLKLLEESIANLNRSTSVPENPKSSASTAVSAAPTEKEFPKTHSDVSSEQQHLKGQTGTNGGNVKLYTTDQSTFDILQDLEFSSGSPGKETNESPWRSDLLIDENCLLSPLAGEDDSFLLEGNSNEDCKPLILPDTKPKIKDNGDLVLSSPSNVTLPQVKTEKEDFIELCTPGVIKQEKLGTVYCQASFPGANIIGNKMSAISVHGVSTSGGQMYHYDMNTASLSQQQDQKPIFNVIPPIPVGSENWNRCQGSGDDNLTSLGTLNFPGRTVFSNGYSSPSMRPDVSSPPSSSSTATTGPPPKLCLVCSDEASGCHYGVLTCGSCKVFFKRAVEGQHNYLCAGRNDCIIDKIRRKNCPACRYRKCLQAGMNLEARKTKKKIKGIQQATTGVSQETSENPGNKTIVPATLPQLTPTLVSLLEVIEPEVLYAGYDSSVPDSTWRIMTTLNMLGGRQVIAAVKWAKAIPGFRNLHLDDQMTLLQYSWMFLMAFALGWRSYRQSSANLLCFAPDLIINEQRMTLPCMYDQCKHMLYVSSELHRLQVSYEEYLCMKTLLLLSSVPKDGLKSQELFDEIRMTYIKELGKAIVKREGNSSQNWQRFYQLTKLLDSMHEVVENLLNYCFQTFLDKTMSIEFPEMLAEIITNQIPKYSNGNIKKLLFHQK
# [1] = Duration of action (t1/2); settings: in vivo; read-out: Duration of action (t1/2 in hours) (converted)
# [2] = target: T2, mineralocorticoid receptor (Homo sapiens, UniProt P08235); assay: Mineralocorticoid receptor activity (MR potency) of corticosterones; settings: relative potency, hydrocortisone (cortisol) = 1
# T2 sequence (P08235 1-984): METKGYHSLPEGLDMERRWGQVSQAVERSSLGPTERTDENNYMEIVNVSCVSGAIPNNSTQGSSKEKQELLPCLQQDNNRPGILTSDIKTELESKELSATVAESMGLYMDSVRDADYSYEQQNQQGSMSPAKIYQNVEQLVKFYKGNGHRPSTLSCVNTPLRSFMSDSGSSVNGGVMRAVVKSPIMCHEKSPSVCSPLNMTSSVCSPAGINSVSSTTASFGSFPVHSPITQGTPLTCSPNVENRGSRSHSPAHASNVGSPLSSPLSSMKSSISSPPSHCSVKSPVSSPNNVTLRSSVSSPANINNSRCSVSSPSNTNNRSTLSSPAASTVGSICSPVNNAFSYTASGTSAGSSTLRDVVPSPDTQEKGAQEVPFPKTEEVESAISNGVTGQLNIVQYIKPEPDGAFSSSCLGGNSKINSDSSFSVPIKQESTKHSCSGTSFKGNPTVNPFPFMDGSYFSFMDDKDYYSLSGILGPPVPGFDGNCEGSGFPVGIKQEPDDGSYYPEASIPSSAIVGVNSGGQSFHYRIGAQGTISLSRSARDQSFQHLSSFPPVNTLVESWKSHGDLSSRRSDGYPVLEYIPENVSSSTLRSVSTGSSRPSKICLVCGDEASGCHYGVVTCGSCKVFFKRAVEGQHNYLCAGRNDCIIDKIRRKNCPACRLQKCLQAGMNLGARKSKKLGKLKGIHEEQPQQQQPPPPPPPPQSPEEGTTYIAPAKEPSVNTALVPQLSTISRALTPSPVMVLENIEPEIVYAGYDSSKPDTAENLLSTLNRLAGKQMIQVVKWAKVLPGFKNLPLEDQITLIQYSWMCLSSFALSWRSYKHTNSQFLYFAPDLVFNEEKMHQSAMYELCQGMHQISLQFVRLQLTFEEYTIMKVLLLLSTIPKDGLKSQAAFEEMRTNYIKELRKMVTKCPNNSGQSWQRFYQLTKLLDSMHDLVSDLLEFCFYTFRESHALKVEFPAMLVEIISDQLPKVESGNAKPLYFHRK
# [3] = Particle sizing by laser light scattering; format: physicochemical; settings: as received powder
# [4] = Aqueous solubility and solubility enhancement with hydroxy-propyl β-cyclodextrin in saline
# Source text: FIG. 1: Solubility enhancement for MR compounds and TA in saline with addition of hydroxy propyl β-cyclodextrin (data are mean±sd, n=3). Top: FLU and TA; Bottom: 11-DC; DCS and DCSA.
# [5] = Batch production: particle size (RGA40/2); format: physicochemical; settings: for Particle Size D(0.5): specification <20; for Particle Size D(0.9): specification <30
# [6] = Batch production: Av drug content per vial (RGA40/1); format: physicochemical; settings: batch after freeze drying and gamma sterilization; specification 20.0 ± 2.0 mg
# [7] = Stability of drug aqueous solutions under autoclave conditions; format: physicochemical; settings: saturated solution, 121° C./30 min
# Source text: Preferably, the study materials are sterile, at least to a large degree for preclinical studies. In the absence of a facility for complete aseptic manufacture, in order to sterilize the suspensions there are two possible approaches foreseen—autoclaving the final suspensions in ‘vial’, or gamma sterilization.
# [8] = Batch production: pH (RGA40/3); format: physicochemical; settings: specification 6.0-8.0
# [9] = Stability of drug aqueous solutions under gamma irradiation; format: physicochemical; settings: saturated aqueous solution, ~25 kGy at ambient temperature
# Procedure: Preferably, the study materials are sterile, at least to a large degree for preclinical studies. In the absence of a facility for complete aseptic manufacture, in order to sterilize the suspensions there are two possible approaches foreseen—autoclaving the final suspensions in ‘vial’, or gamma sterilization. Consequently, in order to initially test the resistance of the drug to degradation in the ‘wet’ environment, drug in saturated solutions were prepared as for the storage stability studies above and subjected to autoclave conditions (121° C./30 min) or gamma irradiation (˜25 kGy at ambient temperature).
# Gamma irradiation was conducted at a firm in Melbourne (Steritech; 160 South Gippsland Hwy, Dandenong Sth) and QC certificates provided verifying dose of gamma irradiation received. The samples were exposed to 25 kGy radiation, which severely discoloured the vials, in long term this method may be very suitable when an appropriate glass container, resistant to gamma rays, is used for sample preparation.
# [10] = Drug storage stability in saline (accelerated stability trial)
# Source text: Consequently it was felt to be important to characterise the drug stability over time in aqueous solution as an indicator of likely issues with drug content and/or degradation products in the suspensions on storage.
# [11] = test system: New Zealand albino rabbit eyes; settings: cited from earlier work
structure (smiles),measurement,setting,value
"C[C@]12CCC(=O)C=C1CC[C@@H]1[C@@H]2[C@@H](O)C[C@@]2(C)[C@H]1CC[C@]2(O)C(=O)CO [Hydrocortisone (cortisol), Hydrocortisone]",GR potency,glucocorticoid receptor,1
same,half-life,[1],8 h
same,MR potency,[2],1
C[C@]12C=CC(=O)C=C1CC[C@@H]1[C@@H]2[C@@H](O)C[C@@]2(C)[C@H]1CC[C@]2(O)C(=O)CO [Prednisolone],GR potency,glucocorticoid receptor,4
same,half-life,[1],16 to 36 h
same,MR potency,[2],0.8
C[C@]12CCC(=O)C=C1CC[C@@H]1[C@@H]2C(=O)C[C@@]2(C)[C@H]1CC[C@]2(O)C(=O)CO [Cortisone],GR potency,glucocorticoid receptor,0.8
same,MR potency,[2],0.8
"C[C@]12CC[C@H]3[C@@H](CCC4=CC(=O)CC[C@@]43C)[C@@H]1CC[C@@H]2C(=O)CO [DCS, Deoxycorticosterone]","D(v, 0.5)",[3],22 microns
same,"D(v, 0.9)",[3],80 microns
same,solubility relative to 11-DC and DCSA,[4],4-8 fold
same,concentration in solution,[4]; saline with 50 mM HP-βCD,> 8000 µg/mL
same,Particle Size D(0.5),[5],Particle RGA40/2 D(0.5) = <20 12.7 3 Nov. 2006 Passed
same,Particle Size D(0.9),[5],Size D(0.9) = <30 30.0
same,Av Drug Content per vial,[6],Av Drug RGA40/1 20.0 ± 2.0 mg 18.5 ± 0.7 1 Nov. 2006 Passed
same,stability of aqueous solution to autoclave conditions,[7],stable
same,pH,[8],pH RGA40/3 6.0-8.0 7.0 3 Nov. 2006 Passed
C[C@H]1C[C@H]2[C@@H]3CCC4=CC(=O)C=C[C@]4(C)[C@@]3(Cl)[C@@H](O)C[C@]2(C)[C@@]1(O)C(=O)CO [Beclometasone],GR potency,glucocorticoid receptor,8 puffs 4 times a day;
C[C@H]1C[C@@H]2[C@H]([C@@H](O)C[C@@]3(C)[C@H]2CC[C@]3(O)C(=O)CO)[C@@]2(C)C=CC(=O)C=C12 [Methylprednisolone],half-life,[1],18 to 40 h
C[C@]12C=CC(=O)C=C1CC[C@H]1[C@@H]3C[C@@H](O)[C@](O)(C(=O)CO)[C@@]3(C)C[C@H](O)[C@@]12F [Triamcinolone],GR potency,glucocorticoid receptor,5
same,half-life,[1],12 to 36 h
same,MR potency,[2],0
C[C@]12C=CC(=O)C=C1CC[C@@H]1[C@@H]2C(=O)C[C@@]2(C)[C@H]1CC[C@]2(O)C(=O)CO [Prednisone],half-life,[1],16 to 36 h
same,MR potency,[2],0.8
"C[C@]12CCC(=O)C=C1CC[C@@H]1[C@@H]2CC[C@@]2(C)[C@H]1CC[C@]2(O)C(=O)CO [11-DC, 11-deoxycortisol]",initial drug content remaining after gamma irradiation,[9],less than 20%
same,"drug concentration remaining, % of original concentration",[10],> 90%
same,"D(v, 0.5)",[3],81 microns
same,"D(v, 0.9)",[3],233 microns
same,Particle Size D(0.5),[5],Particle RGA40/2 D(0.5) = <20 7.1 3 Nov. 2006 Passed
same,Particle Size D(0.9),[5],Size D(0.9) = <30 25
same,Av Drug Content per vial,[6],Av Drug RGA40/1 20.0 ± 2.0 mg 18.4 ± 0.5 27 Oct. 2006 Passed
same,stability of aqueous solution to autoclave conditions,[7],stable
same,pH,[8],pH RGA40/3 6.0-8.0 7.0 3 Nov. 2006 Passed
C[C@]12CCC(=O)C=C1CC[C@@H]1[C@@H]2[C@@H](O)C[C@]2(C=O)[C@@H](C(=O)CO)CC[C@@H]12 [Aldosterone],GR potency,glucocorticoid receptor,0.3
same,MR potency,[2],200-1000
"CC1(C)O[C@@H]2C[C@H]3[C@@H]4CCC5=CC(=O)C=C[C@]5(C)[C@@]4(F)[C@@H](O)C[C@]3(C)[C@]2(C(=O)CO)O1 [TA, triamcinolone acetonide]",absolute solubility (compared with FLU),[4],lower overall
same,aqueous solubility relative to the other compounds,[4],very low
same,stability of aqueous solution to autoclave conditions,[7],moderately stable
"C[C@]12CCC(=O)C=C1CC[C@H]1[C@@H]3CC[C@](O)(C(=O)CO)[C@@]3(C)C[C@H](O)[C@@]12F [FLU, fludrocortisone]","drug concentration remaining, % of original concentration","[10]; saturated solution in saline, 60° C., after two weeks",20%
same,stability in saline over time,"[10]; saturated solution in saline, 60° C., up to 14 days",marked instability
same,ERG in the other groups / other eyes,"[11]; intravitreal 400 μg, 1 mg, 2 mg/0.1 ml and remaining eyes, two weeks after injection",no significant decrease in ERG
same,eyes with decreases in ERG,"[11]; intravitreal 4 mg/0.1 ml, two weeks after injection",One
same,eyes with vitreous hemorrhage,[11]; intravitreal 4 mg/0.1 ml,one
same,"signs of retinal toxicity on slit-lamp examination, indirect ophthalmoscopy or light microscopy","[11]; rabbit, in vivo",no signs of retinal toxicity
same,stability of aqueous solution to autoclave conditions,[7],partly degraded
